Calls of active or inactive are those of the source. No cut-off for these calls is given here.
Tests used:
HCT-116 = experiment: Antiproliferative activity against human HCT116 cells assessed as reduction in cell viability incubated for 48 hrs by MTT assay; assay type: functional, cell-based; conditions: HCT-116, 48 h
HepG2 = experiment: Antiproliferative activity against human HepG2 cells assessed as reduction in cell viability incubated for 48 hrs by MTT assay; assay type: functional, cell-based; conditions: HepG2, 48 h
MDA-MB-231 [1] = experiment: Antiproliferative activity against human MDA-MB-231 cells assessed as reduction in cell viability incubated for 48 hrs by MTT assay; assay type: functional, cell-based; conditions: MDA-MB-231, 48 h
MCF7 = experiment: Antiproliferative activity against human MCF7 cells assessed as reduction in cell viability incubated for 48 hrs by MTT assay; assay type: functional, cell-based; conditions: MCF7, 48 h
[2] = biological target: Signal transducer and activator of transcription 3 (Homo sapiens) (UniProt P40763); experiment: Inhibition of STAT3 in human MDA-MB-231 cells assessed as decrease in STAT3 phosphorylation at Tyr705 residue at 4 uM incubated for 24 hrs by Western blot analysis; assay type: cell-based
Sequence of Signal transducer and activator of transcription 3 (Homo sapiens) (P40763 whole entry): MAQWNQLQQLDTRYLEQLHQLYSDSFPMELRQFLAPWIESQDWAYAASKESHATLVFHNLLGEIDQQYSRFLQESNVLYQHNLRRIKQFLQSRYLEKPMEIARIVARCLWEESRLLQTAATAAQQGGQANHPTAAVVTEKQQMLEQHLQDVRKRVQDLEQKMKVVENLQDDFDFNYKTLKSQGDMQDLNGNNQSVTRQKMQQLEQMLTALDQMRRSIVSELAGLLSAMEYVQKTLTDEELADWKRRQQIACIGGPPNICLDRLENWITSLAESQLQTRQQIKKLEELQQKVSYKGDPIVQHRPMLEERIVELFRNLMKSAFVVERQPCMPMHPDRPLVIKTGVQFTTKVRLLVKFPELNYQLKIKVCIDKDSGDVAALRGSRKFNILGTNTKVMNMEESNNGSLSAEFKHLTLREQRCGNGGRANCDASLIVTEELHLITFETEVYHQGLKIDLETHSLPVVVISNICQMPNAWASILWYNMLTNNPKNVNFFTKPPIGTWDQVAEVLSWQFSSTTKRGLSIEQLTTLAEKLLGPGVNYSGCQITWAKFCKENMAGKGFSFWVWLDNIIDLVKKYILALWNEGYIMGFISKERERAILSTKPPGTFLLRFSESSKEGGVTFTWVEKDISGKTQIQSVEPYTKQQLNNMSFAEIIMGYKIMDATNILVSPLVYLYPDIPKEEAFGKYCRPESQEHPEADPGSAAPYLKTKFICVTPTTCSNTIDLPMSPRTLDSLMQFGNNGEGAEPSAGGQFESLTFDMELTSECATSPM

[3] = biological target: Signal transducer and activator of transcription 3 (Homo sapiens) (UniProt P40763); experiment: Inhibition of STAT3 in human MDA-MB-231 cells assessed as decrease in STAT3-DNA binding at 4 uM incubated for 24 hrs by electrophoretic mobility shift assay; assay type: cell-based
[4] = Selectivity index, ratio of IC50 for human MCF10A cells to IC50 for human MDA-MB-231 cells; assay type: toxicity; conditions: MCF10A cells versus MDA-MB-231 cells, read-out: Ratio IC50
[5] = biological target: T1, Signal transducer and activator of transcription 1-alpha/beta (Homo sapiens) (UniProt P42224); experiment: Inhibition of STAT1 in human MDA-MB-231 cells assessed as decrease in STAT1 phosphorylation at Y701 residue at 4 uM incubated for 24 hrs by Western blot analysis; assay type: cell-based
T1 sequence (whole entry): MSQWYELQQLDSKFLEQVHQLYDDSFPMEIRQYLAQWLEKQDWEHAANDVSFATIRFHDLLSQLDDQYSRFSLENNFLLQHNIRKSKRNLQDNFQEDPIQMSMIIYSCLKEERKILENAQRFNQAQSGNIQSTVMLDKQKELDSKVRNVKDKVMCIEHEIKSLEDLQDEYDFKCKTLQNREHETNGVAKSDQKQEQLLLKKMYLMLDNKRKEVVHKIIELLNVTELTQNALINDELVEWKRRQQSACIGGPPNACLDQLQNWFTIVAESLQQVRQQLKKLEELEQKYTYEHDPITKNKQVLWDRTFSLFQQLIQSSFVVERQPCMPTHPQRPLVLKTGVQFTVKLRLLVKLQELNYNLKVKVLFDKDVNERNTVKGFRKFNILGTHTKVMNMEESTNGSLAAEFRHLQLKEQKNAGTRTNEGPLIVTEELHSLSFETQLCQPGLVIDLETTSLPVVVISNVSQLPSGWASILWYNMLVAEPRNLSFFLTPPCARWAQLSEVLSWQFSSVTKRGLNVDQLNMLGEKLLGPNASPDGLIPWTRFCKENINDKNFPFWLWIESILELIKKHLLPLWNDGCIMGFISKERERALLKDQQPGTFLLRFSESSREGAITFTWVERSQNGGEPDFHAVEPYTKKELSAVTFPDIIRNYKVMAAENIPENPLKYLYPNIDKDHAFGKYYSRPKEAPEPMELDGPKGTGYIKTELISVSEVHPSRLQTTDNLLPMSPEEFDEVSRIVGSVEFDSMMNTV

MDA-MB-231 [6] = experiment: Induction of apoptosis in human MDA-MB-231 cells assessed as increase in cleaved PARP levels at 4 uM incubated for 24 hrs by Western blot analysis; assay type: functional, cell-based
L02 = experiment: Cytotoxicity against human LO2 cells assessed as reduction in cell viability incubated for 48 hrs by MTT assay; assay type: cell-based; conditions: L02, 48 h
MDA-MB-231 [7] = experiment: Induction of apoptosis in human MDA-MB-231 cells assessed as increase in cleaved caspase-3 levels at 4 uM incubated for 24 hrs by Western blot analysis; assay type: functional, cell-based
[8] = biological target: Proto-oncogene tyrosine-protein kinase Src (Homo sapiens) (UniProt P12931); experiment: Inhibition of Src in human MDA-MB-231 cells assessed as reduction in Src phosphorylation at 4 uM incubated for 24 hrs by Western blot analysis; assay type: cell-based
Sequence of Proto-oncogene tyrosine-protein kinase Src (Homo sapiens) (P12931 2-536 limits assumed): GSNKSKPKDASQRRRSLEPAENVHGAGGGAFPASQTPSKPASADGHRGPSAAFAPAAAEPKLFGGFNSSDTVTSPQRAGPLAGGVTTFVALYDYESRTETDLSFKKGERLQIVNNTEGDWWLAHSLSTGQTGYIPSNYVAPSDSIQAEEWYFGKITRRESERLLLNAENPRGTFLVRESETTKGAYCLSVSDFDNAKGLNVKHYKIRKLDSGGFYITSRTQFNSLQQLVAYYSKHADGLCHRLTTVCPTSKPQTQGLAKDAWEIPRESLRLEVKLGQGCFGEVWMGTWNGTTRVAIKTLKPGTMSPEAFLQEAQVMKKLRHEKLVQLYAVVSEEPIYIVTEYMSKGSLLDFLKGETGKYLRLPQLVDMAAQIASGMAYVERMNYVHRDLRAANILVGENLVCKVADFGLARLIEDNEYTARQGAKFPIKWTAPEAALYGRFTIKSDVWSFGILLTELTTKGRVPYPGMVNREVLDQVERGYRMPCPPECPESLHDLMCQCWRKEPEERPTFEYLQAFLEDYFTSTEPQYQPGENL

MCF-10A = experiment: Cytotoxicity against human MCF10A cells assessed as reduction in cell viability incubated for 48 hrs by MTT assay; assay type: cell-based
MDA-MB-231 [9] = experiment: Induction of apoptosis in human MDA-MB-231 cells assessed as increase in cleaved caspase-9 levels at 4 uM incubated for 24 hrs by Western blot analysis; assay type: functional, cell-based
[10] = biological target: Tyrosine-protein kinase JAK2 (Homo sapiens) (UniProt O60674); experiment: Inhibition of JAK2 in human MDA-MB-231 cells assessed as reduction in JAK2 phosphorylation at 4 uM incubated for 24 hrs by Western blot analysis; assay type: cell-based
Sequence of Tyrosine-protein kinase JAK2 (Homo sapiens) (O60674 whole entry): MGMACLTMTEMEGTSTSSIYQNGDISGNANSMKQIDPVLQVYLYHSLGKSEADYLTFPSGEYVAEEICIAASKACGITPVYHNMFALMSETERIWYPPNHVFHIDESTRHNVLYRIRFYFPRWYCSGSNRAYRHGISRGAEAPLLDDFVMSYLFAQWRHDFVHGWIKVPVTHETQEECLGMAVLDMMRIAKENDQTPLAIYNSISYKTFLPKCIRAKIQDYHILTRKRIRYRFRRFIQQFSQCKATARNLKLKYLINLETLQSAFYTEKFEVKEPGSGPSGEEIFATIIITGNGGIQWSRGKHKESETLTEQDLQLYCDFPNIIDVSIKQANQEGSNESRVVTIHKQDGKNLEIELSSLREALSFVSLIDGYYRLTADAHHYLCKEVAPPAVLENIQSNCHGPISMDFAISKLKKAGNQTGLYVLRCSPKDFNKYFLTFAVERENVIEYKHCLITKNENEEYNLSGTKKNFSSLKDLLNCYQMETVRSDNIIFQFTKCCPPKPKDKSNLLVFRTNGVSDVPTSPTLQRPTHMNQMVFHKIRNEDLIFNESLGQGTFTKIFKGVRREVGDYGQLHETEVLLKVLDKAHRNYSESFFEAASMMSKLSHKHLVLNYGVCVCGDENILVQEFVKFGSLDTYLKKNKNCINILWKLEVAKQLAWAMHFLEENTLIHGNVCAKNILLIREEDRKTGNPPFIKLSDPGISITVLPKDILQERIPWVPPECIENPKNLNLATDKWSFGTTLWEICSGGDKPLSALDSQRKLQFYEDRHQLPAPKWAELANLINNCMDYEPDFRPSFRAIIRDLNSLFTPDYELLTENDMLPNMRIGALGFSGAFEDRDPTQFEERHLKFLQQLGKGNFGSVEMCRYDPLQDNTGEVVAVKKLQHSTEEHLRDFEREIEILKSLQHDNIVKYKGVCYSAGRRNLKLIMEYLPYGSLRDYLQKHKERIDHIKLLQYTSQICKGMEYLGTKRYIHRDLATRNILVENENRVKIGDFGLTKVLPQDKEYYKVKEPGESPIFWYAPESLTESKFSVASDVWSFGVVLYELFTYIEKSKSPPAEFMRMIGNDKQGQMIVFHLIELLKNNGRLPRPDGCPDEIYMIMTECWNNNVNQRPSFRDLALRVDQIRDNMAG

[11] = biological target: Mitogen-activated protein kinase; ERK1/ERK2 (Homo sapiens) (UniProt P27361+P28482); experiment: Inhibition of ERK 1/2 in human MDA-MB-231 cells assessed as reduction in ERK 1/2 phosphorylation at 4 uM incubated for 24 hrs by Western blot analysis; assay type: cell-based
Sequence of Mitogen-activated protein kinase; ERK1/ERK2 (Homo sapiens) (P27361 whole entry, looked up): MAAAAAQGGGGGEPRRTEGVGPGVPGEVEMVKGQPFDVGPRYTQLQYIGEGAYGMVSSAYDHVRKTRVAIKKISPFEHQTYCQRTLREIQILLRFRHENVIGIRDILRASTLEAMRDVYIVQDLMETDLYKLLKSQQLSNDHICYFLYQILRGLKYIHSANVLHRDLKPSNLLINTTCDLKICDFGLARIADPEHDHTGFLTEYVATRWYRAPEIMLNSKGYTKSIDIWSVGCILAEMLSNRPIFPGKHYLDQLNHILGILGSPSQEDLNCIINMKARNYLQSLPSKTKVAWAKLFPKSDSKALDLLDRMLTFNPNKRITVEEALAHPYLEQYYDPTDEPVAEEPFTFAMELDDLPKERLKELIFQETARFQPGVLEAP
Sequence of Mitogen-activated protein kinase; ERK1/ERK2 (Homo sapiens) (P28482 whole entry, looked up): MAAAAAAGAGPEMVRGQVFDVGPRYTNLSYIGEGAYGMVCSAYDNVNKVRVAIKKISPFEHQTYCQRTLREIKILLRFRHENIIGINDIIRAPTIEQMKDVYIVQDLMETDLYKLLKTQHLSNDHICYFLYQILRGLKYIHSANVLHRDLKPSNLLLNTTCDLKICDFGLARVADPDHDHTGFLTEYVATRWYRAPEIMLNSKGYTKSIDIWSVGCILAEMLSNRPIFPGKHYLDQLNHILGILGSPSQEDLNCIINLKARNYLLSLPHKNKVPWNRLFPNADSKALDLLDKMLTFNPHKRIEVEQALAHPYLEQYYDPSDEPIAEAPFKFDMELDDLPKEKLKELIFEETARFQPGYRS

[12] = Selectivity index, ratio of IC50 for human L02 cells to IC50 for human HepG2 cells; assay type: toxicity; conditions: L02 cells versus HepG2 cells, read-out: Ratio IC50

Row | SMILES | IC50 (HCT-116) [µM] | IC50 (HepG2) [µM] | IC50 (MDA-MB-231 [1]) [µM] | IC50 (MCF7) [µM] | also measured
1 | CCN(CC)c1ccc2cc(C(=O)N3CCN(C(=O)C4=Cc5c(OC)cccc5S4(=O)=O)CC3)c(=O)oc2c1 | 2.02 | 2.94 | 1.84 | 3.95 | –
2 | CCN(CC)c1ccc2cc(C(=O)N3CCN(C(=O)C4=Cc5ccccc5S4(=O)=O)CC3)c(=O)oc2c1 | 3.78 | 4.31 | 2.32 | 3 | –
3 | CCN(CC)c1ccc2cc(C(=O)N3CCN(C(=O)C4=Cc5cc(Br)ccc5S4(=O)=O)CC3)c(=O)oc2c1 | 3.83 | 5.15 | 2.23 | 3.9 | –
4 | CCN(CC)c1ccc2cc(C(=O)N3CCN(C(=O)C4=Cc5ccc(Cl)cc5S4(=O)=O)CC3)c(=O)oc2c1 | 4.44 | 5.29 | 2.03 | 5.23 | –
5 | O=S1(=O)C=Cc2ccccc21 | 9.33 | 22.9 | 27.7 | 15.2 | –
6 | CCN(CC)c1ccc2cc(C(=O)N3CCN(C(=O)C4=Cc5c(F)cccc5S4(=O)=O)CC3)c(=O)oc2c1 | 2.33 | 3.3 | 2.13 | 4.04 | –
7 | CCN(CC)c1ccc2cc(C(=O)N3CCN(C(=O)C4=Cc5cccc(Br)c5S4(=O)=O)CC3)c(=O)oc2c1 | 2.97 | 4.74 | 2.32 | 3.2 | –
8 | CCN(CC)c1ccc2cc(C(=O)N3CCN(C(=O)C4=Cc5ccc(F)cc5S4(=O)=O)CC3)c(=O)oc2c1 | 4.26 | 4.9 | 3.2 | 6.35 | –
9 | CCN(CC)c1ccc2cc(C(=O)N3CCN(C(=O)C4=Cc5cc(Cl)ccc5S4(=O)=O)CC3)c(=O)oc2c1 | 4.12 | 5.55 | 2.35 | 4.39 | –
10 | CCN(CC)c1ccc2cc(C(=O)N3CCN(C(=O)C4=Cc5ccc(OC)cc5S4(=O)=O)CC3)c(=O)oc2c1 | 2.3 | 4.21 | 1.92 | 2.28 | –
11 | CCN(CC)c1ccc2cc(C(=O)N3CCN(C(=O)C4=Cc5ccc(Br)cc5S4(=O)=O)CC3)c(=O)oc2c1 | 2.79 | 5.52 | 2.74 | 5.04 | –
12 | CCN(CC)c1ccc2cc(C(=O)N3CCN(C(=O)C4=Cc5c(Cl)cccc5S4(=O)=O)CC3)c(=O)oc2c1 | 1.57 | 4.49 | 2.24 | 4.44 | –
13 | O=[N+]([O-])c1ccc2c(c1)S(=O)(=O)C=C2 | 2.16 | 3.52 | 1.81 | 3.71 | inhibition [2]: Active; inhibition [3]: Active; selectivity ratio [4]: 3.4; inhibition [5]: inactive; Activity (MDA-MB-231 [6]): Active; IC50 (L02): 5.2 µM; Activity (MDA-MB-231 [7]): Active; inhibition [8]: inactive; IC50 (MCF-10A): 6.11 µM; Activity (MDA-MB-231 [9]): Active; inhibition [10]: inactive; inhibition [11]: inactive; selectivity ratio [12]: 1.5
14 | CCN(CC)c1ccc2cc(C(=O)N3CCN(C(=O)C4=Cc5cc([N+](=O)[O-])ccc5S4(=O)=O)CC3)c(=O)oc2c1 | 6.74 | 7.47 | 4.92 | 6.33 | –
15 | CCN(CC)c1ccc2cc(C(=O)N3CCN(C(=O)C4=Cc5ccc([N+](=O)[O-])cc5S4(=O)=O)CC3)c(=O)oc2c1 | 4.95 | 7.09 | 5.22 | 6.76 | –
16 | CCN(CC)c1ccc2cc(C(=O)N3CCN(C(=O)C4=Cc5c([N+](=O)[O-])cccc5S4(=O)=O)CC3)c(=O)oc2c1 | 3.24 | 4.91 | 3.46 | 4.41 | –

From ChEMBL document CHEMBL4393689, “Discovery of fluorescent coumarin-benzo[b]thiophene 1, 1-dioxide conjugates as mitochondria-targeting antitumor STAT3 inhibitors” (Eur J Med Chem, 2019)
